Results: PubChem BioAssay AID2060363 (Molecular Pharmacology Branch, DTP, NCI, 2025)
pIC50: −log10 of the molar value. Values joined by “and” are separate entries in the source; they are usually repeats but may differ in a detail not shown here. Equal values may be shown once.

Test system: 156681-154-R-J1-PDC tumor spheroids, viability % test/control
Test: Anticancer human tumor 156681-154-R-J1-PDC patient-derived melanoma cell line growth inhibition [TAK]
Conditions: spheroids with HUVEC and MSC; for viability, T/C: stronger effect = lower value
Procedure, shortened: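 Tumor cells were grown as spheroids with HUVEC and hMSC (60:25:15) and treated with targeted agents combined with TAK-243 or ipatasertib. Drugs were tested in half-log steps down from near the clinical Cmax, or from 10 microM where Cmax was unknown.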

[1] = curve of first compound, second compound 0.3 µM
[2] = curve of first compound, second compound 0.949 µM
[3] = curve of first compound, second compound 3 µM
[4] = curve of first compound, second compound 9.49 µM
[5] = curve of first compound, second compound 30 µM
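Also: spheroids exposed to compounds for 7 days before the endpoint.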

CCCS(=O)(=O)Nc1ccc(F)c(C(=O)c2c[nH]c3ncc(-c4ccc(Cl)cc4)cc23)c1F + CC(C)NCC(C(=O)N1CCN(c2ncnc3c2C(C)CC3O)CC1)c1ccc(Cl)cc1
pIC50 [1]: 5.09
pIC50 [2]: 5.12
pIC50 [3]: 5.42
pIC50 [4]: > 6.50
pIC50 [5]: > 6.50
viability, T/C (second compound 0.3 µM, first compound 0.316 µM): 104%
viability, T/C (second compound 0.3 µM, first compound 1 µM): 111%
viability, T/C (second compound 0.3 µM, first compound 3.16 µM): 103%
viability, T/C (second compound 0.3 µM, first compound 10 µM): 24.5%
viability, T/C (second compound 0.3 µM, first compound 31.6 µM): 0.49%
viability, T/C (second compound 0.3 µM, first compound 100 µM): 91.8%
viability, T/C (second compound 0.949 µM, first compound 0.316 µM): 89.5%
viability, T/C (second compound 0.949 µM, first compound 1 µM): 101%
viability, T/C (second compound 0.949 µM, first compound 3.16 µM): 85.2%
viability, T/C (second compound 0.949 µM, first compound 10 µM): 15.7%
viability, T/C (second compound 0.949 µM, first compound 31.6 µM): 16.6%
viability, T/C (second compound 0.949 µM, first compound 100 µM): 82.9%
viability, T/C (second compound 3 µM, first compound 0.316 µM): 83%
viability, T/C (second compound 3 µM, first compound 1 µM): 72.8%
viability, T/C (second compound 3 µM, first compound 3.16 µM): 58.8%
viability, T/C (second compound 3 µM, first compound 10 µM): 6.57%
viability, T/C (second compound 3 µM, first compound 31.6 µM): 3.37%
viability, T/C (second compound 3 µM, first compound 100 µM): 3.64%
viability, T/C (second compound 9.49 µM, first compound 0.316 µM): 41.6%
viability, T/C (second compound 9.49 µM, first compound 1 µM): 42.8%
viability, T/C (second compound 9.49 µM, first compound 3.16 µM): 36.5%
viability, T/C (second compound 9.49 µM, first compound 10 µM): 1.52%
viability, T/C (second compound 9.49 µM, first compound 31.6 µM): 0.38%
viability, T/C (second compound 9.49 µM, first compound 100 µM): 0.73%
viability, T/C (second compound 30 µM, first compound 0.316 µM): 19.2%
viability, T/C (second compound 30 µM, first compound 1 µM): 19.2%
viability, T/C (second compound 30 µM, first compound 3.16 µM): 4.74%
viability, T/C (second compound 30 µM, first compound 10 µM): 0.42%
viability, T/C (second compound 30 µM, first compound 31.6 µM): 0.39%
viability, T/C (second compound 30 µM, first compound 100 µM): 0.5%

CC(C)CC(NC(=O)CNC(=O)c1cc(Cl)ccc1Cl)B1OC(=O)CC(CC(=O)O)(C(=O)O)O1 (configuration not stated)
viability, T/C (compound 0.000316 µM): 104% and 94.9%
viability, T/C (compound 0.001 µM): 101% and 104%
viability, T/C (compound 0.00316 µM): 99.5% and 101%
viability, T/C (compound 0.01 µM): 95.7% and 90.9%
viability, T/C (compound 0.0316 µM): 18.1% and 10.3%
viability, T/C (compound 0.1 µM): 0.44% and 0.46%
pIC50 (curve of compound): 7.71 and 7.75

CC(C)n1nc(-c2ccc3oc(N)nc3c2)c2c(N)ncnc21 + CC(C)NCC(C(=O)N1CCN(c2ncnc3c2C(C)CC3O)CC1)c1ccc(Cl)cc1
pIC50 [1]: 7.59
pIC50 [2]: 7.90
pIC50 [3]: 8.62
pIC50 [4]: > 9.50
pIC50 [5]: > 9.50
viability, T/C (second compound 0.3 µM, first compound 0.000316 µM): 94.5%
viability, T/C (second compound 0.3 µM, first compound 0.001 µM): 91.8%
viability, T/C (second compound 0.3 µM, first compound 0.00316 µM): 84.1%
viability, T/C (second compound 0.3 µM, first compound 0.01 µM): 69.4%
viability, T/C (second compound 0.3 µM, first compound 0.0316 µM): 45.9%
viability, T/C (second compound 0.3 µM, first compound 0.1 µM): 25.2%
viability, T/C (second compound 0.949 µM, first compound 0.000316 µM): 83.4%
viability, T/C (second compound 0.949 µM, first compound 0.001 µM): 85.4%
viability, T/C (second compound 0.949 µM, first compound 0.00316 µM): 63.8%
viability, T/C (second compound 0.949 µM, first compound 0.01 µM): 58.6%
viability, T/C (second compound 0.949 µM, first compound 0.0316 µM): 32.1%
viability, T/C (second compound 0.949 µM, first compound 0.1 µM): 20%
viability, T/C (second compound 3 µM, first compound 0.000316 µM): 65.4%
viability, T/C (second compound 3 µM, first compound 0.001 µM): 57.3%
viability, T/C (second compound 3 µM, first compound 0.00316 µM): 46.2%
viability, T/C (second compound 3 µM, first compound 0.01 µM): 38.3%
viability, T/C (second compound 3 µM, first compound 0.0316 µM): 19.7%
viability, T/C (second compound 3 µM, first compound 0.1 µM): 11%
viability, T/C (second compound 9.49 µM, first compound 0.000316 µM): 39.9%
viability, T/C (second compound 9.49 µM, first compound 0.001 µM): 33.4%
viability, T/C (second compound 9.49 µM, first compound 0.00316 µM): 23.3%
viability, T/C (second compound 9.49 µM, first compound 0.01 µM): 16.3%
viability, T/C (second compound 9.49 µM, first compound 0.0316 µM): 11%
viability, T/C (second compound 9.49 µM, first compound 0.1 µM): 4.26%
viability, T/C (second compound 30 µM, first compound 0.000316 µM): 15.5%
viability, T/C (second compound 30 µM, first compound 0.001 µM): 14.4%
viability, T/C (second compound 30 µM, first compound 0.00316 µM): 12.3%
viability, T/C (second compound 30 µM, first compound 0.01 µM): 7.31%
viability, T/C (second compound 30 µM, first compound 0.0316 µM): 3.39%
viability, T/C (second compound 30 µM, first compound 0.1 µM): 1.21%
